Results on 5 molecules are retold here after ChEMBL document CHEMBL1155586, “Streptazones A, B(1), B(2), C, and D: new piperidine alkaloids from streptomycetes” (2000).

As usually defined, the GI50 is the concentration giving 50% growth inhibition. Low values mean more potent growth inhibition, high ones less potent growth inhibition. In general, TGI refers to the concentration giving total growth inhibition. The low end stands for greater sensitivity of the cells, the high end for lower sensitivity of the cells.

Calls of active or inactive are those of the source. The calls are words filed in the database; no cut-off is given here.

The test system of one assay is Kato3. In words: Cytotoxicity against human Kato3 cells at 50 umol/L. It counts as functional, cell-based.
In another assay the test system is HMO2. In words: Cytotoxicity against human HMO2 cells at 50 umol/L. In kind it is functional, cell-based.
Assay [1] has as its system MCF7. In words: Cytotoxicity against human MCF7 cells at 50 umol/L. In kind it is functional, cell-based.
Assay [2] concerns MCF7. In words: Cytotoxicity against human MCF7 cells. In kind it is functional.
Assay [3] is described as follows: Cytotoxicity against human HMO2 cells. It counts as functional.
Another assay deals with HepG2. Nature of the assay: Cytotoxicity against human HepG2 cells. In kind it is functional.
The nature of assay [4]: Cytotoxicity against human Kato3 cells. In kind it is functional.

In the case of `C/C=C1\C(=O)C=C2NCCC=C21`, the result with Kato3, in the assay on HMO2 and with MCF7 [1] was inactive.
On to `C/C=C1\C(=O)C=C2NCCC3OC213` (stereo not given) [STREPTAZONE A], for which the GI50 with MCF7 [2] is 15 µM; in assay [3] it was 0.5 µM; in the assay on HepG2 it was under 0.1 µM; in assay [4], 0.6 µM. Moreover, the TGI in the assay with MCF7 [2] worked out at 50 µM; in assay [3], 50 µM; in the assay on HepG2, 2.5 µM; in assay [4], 1 µM.
Consider `C/C=C1\C=CC2=C1C(=O)CCN2`, for which the outcome in the assay with Kato3, with HMO2 and with MCF7 [1] was inactive.
Turning to `C/C=C1/C2=CCCN3C(=O)O[C@H]([C@H]1O)[C@H]23`, the outcome in the assay with Kato3, in the assay on HMO2 and with MCF7 [1] was inactive.
In the case of `C/C=C/C=C/C1=CC(=O)CCN1`, the outcome with Kato3, in the assay with HMO2 and in the assay on MCF7 [1] was inactive.
